Results taken from article PMC12250347, “Calcium-dependent pathway as a primary cause of hypoxic RGC damage in monkey retinal explants” (PLOS One, 2025).
pIC50: −log10 of the molar value.

Legend:
[1] = molecular target: T1, human liver cathepsin B (Homo sapiens, UniProt P07858); test: In vitro cathepsin inhibitory assay (Z-Phe-Arg-AMC fluorescence); format: biochemical; details: 15 ng/mL cathepsin B, 20 µM Z-Phe-Arg-AMC, 15 min, 37°C, pH 5.5; mean of two experiments
T1 construct: human liver cathepsin B (MilliporeSigma); purchased MilliporeSigma; host or cells: human liver
Experimental: (§1) Cathepsins K, B, and L were selected because of their known roles in cell death and early release following lysosomal membrane permeabilization. The inhibitory activities of cathepsin inhibitors were assessed in vitro using human recombinant cathepsin K (MilliporeSigma), human liver cathepsin B (MilliporeSigma), and human liver cathepsin L (MilliporeSigma). Cathepsins and the cathepsin substrate, Z-Phe-Arg-AMC (PEPTIDE INSTITUTE, INC.), were dissolved in 50 mM sodium acetate buffer (pH 5.5) containing 2 mM dithiothreitol and 2 mM EDTA. A cathepsin K inhibitor, Odanacatib (Selleck Chemicals, Houston, TX, USA), and a cathepsin L inhibitor, SID26681509 (Bio-Techne Corporation), were dissolved in dimethyl sulfoxide (DMSO) (Nacalai Tesque, Kyoto, Japan) before use in the assay. The final concentration of DMSO in the reaction solution was 2%. The cathepsin substrate, 20 µM Z-Phe-Arg-AMC, was incubated for 15 min with 20 ng/mL cathepsin K, 15 ng/mL cathepsin B, or 50 ng/mL cathepsin L, with or without each inhibitor at a final concentration of 0.001 nM to 100 µM in 100 µL of mixed reaction solution in a 96-well plate at 37 °C. The fluorescence was measured using a microplate reader (GloMax Discover System; Promega). IC50 values from two independent experiments were averaged.

[2] = molecular target: T2, human liver cathepsin L (Homo sapiens, UniProt P07711); test: as above; format: biochemical; details: 50 ng/mL cathepsin L, 20 µM Z-Phe-Arg-AMC, 15 min, 37°C, pH 5.5; mean of two experiments
T2 construct: human liver cathepsin L (MilliporeSigma); purchased MilliporeSigma; host or cells: human liver
Experimental: as §1

[3] = molecular target: T3, human recombinant cathepsin K (Homo sapiens, UniProt P43235); test: as above; format: biochemical; details: 20 ng/mL cathepsin K, 20 µM Z-Phe-Arg-AMC, 15 min, 37°C, pH 5.5; mean of two experiments
T3 construct: purchased MilliporeSigma
T3 sequence (P43235 115-329): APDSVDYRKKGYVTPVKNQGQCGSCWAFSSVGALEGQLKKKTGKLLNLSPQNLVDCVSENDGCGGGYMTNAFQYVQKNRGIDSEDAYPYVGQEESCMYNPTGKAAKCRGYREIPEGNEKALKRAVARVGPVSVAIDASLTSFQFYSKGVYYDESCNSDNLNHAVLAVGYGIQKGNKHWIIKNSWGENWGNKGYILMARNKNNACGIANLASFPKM
Experimental: as §1

[4] = tested on: calpain 1 activation and proteolysis of α-spectrin; parameters: method as in PMID 26393472; details: immunoblotting of hypoxic retinal explants; cited from earlier work
[5] = tested on: RGCs in monkey retinal explants; parameters: method as in PMID 26393472, PMID 33156340; details: human and monkey retinal explants treated with hypoxia; cited from earlier work
[6] = tested on: calpains 1 and 2 in monkey retinal lysate; test: In vitro inhibitory assay of calpains from retinal lysate (CaCl2, immunoblotting); format: biochemical; details: non-cultured monkey retina lysate, 10 mM CaCl2, 2 hr, 37°C; inhibitor at 1, 10 and 100 µM
Experimental: Each retinal explant was sonicated in RIPA Lysis and Extraction Buffer (Thermo Fisher Scientific), with protease inhibitors cocktail (Complete Mini-EDTA-free; MilliporeSigma). Protein concentrations in lysates were measured by BCA assay (Pierce BCA Protein Assay Kit, Thermo Fisher Scientific) using bovine serum albumin as a standard. For immunoblotting, 5 μg of each sample was loaded and run on 4% to 12% gradient or 10% SDS-PAGE gels (NuPAGE Bis-Tris Protein Gels, Thermo Fisher Scientific) with 2-(N-morpholino)ethanesulfonic acid buffer or 3-(N-morpholino) propanesulfonic acid buffer (Thermo Fisher Scientific). Proteins were then electrotransferred to a polyvinylidene fluoride membrane (MilliporeSigma) at 100 V for 60 min or 1.5 hr. Membranes were then blocked with 5% skim milk in Tris-buffer saline (Bio-Rad Laboratories, Hercules, CA, USA) containing 0.05% Tween 20. Each membrane was probed with primary antibodies against α-spectrin (1:2000 dilution, Enzo Life Sciences, Farmingdale, NY, USA), SBDP150 (1:1000 dilution, Senju Pharmaceutical), calpain 1 (1:1000 dilution, Thermo Fisher Scientific), calpain 2 (1:500, GeneTex, Irvine, CA, USA), cathepsin K (1:500 dilution, Abcam), and β-actin (1:1000 dilution, Merck). For calpain 1, immunoreactivity was visualized using a secondary antibody conjugated to alkaline phosphatase and the AP Conjugate Substrate Kit (Bio-Rad Laboratories). For other proteins, immunoreactivities were visualized using secondary antibodies conjugated with rabbit (Santa Cruz Biotechnology) or mouse horseradish peroxidase enzyme (Cytiva, Wilmington, DE, USA) and ECL Plus detection reagents (Cytiva). Images of the membranes were captured with FluorChem FC2 imager (Cell Biosciences, Santa Clara, CA, USA). The conversion of pro-cathepsin K (38 kDa) to its mature form (27 kDa) was used as an indicator of cathepsin K activation.
To confirm the isozyme specificities of calpain inhibitors in vitro, non-cultured monkey retinas were sonicated in a buffer containing 20 mM Tris (pH 7.5), 5 mM EGTA, 5 mM EDTA, 2 mM DTE. […]

T2 sequence (P07711 114-333): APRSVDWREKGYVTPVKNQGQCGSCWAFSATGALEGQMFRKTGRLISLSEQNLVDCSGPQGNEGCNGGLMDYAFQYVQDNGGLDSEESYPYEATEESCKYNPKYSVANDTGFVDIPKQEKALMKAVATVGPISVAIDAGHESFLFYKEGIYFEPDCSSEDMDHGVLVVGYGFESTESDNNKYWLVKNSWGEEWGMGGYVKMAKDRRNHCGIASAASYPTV

pIC50 [1]	pIC50 [2]	pIC50 [3]	Compound	Effect on autolysis of calpain 1 in hypoxic retinal explants [4]	Effect on autolysis of calpain 2 in hypoxic retinal explants [4]	Effect on RGC damage in hypoxic retinal explants [5]	Effect on calcium-induced activation (autolysis) of calpains 1 and 2 and SBDP150 in retinal lysate [6]
6.78	5.29	9.55	CC(C)(F)C[C@H](N[C@@H](c1ccc(-c2ccc(S(C)(=O)=O)cc2)cc1)C(F)(F)F)C(=O)NC1(C#N)CC1 [Odanacatib]				
6.31	7.22	5.82	CCc1ccccc1NC(=O)CSC(=O)NNC(=O)[C@H](Cc1c[nH]c2ccccc12)NC(=O)OC(C)(C)C [SID26681509]				
			COCCOCCOC(=O)N[C@@H](CC(C)C)C(=O)N[C@@H](Cc1ccccc1)C(=O)C(=O)NC1CC1 [SNJ-1945]	inhibited the autolysis of calpain 1	did not affect	partially inhibited RGC damage	inhibited the activation of both calpain 1 and calpain 2 in a dose-dependent manner
